According to patent US20110039721A1, “METHOD FOR PREDICTION ABOUT CARCINOGENICITY OF SUBSTANCE IN RODENT” (Chemicals Evaluation and Research Institute, priority 2007, published 2011):

System: mRNA expressed from the genes (A) to (D) in rat liver
Test: Behavior of genes (mRNA expression level, oligo-DNA microarray) in rat liver after 28-day oral administration
Type: in vivo
Method: A test solution was prepared by dissolving each of the carcinogens and the non-carcinogens shown in Tables 2 to 6 in the corresponding solvent shown in Tables 2 to 6. Each of the thus prepared test solutions and the solvents used for the preparation was administered by oral gavage to rats in each group. As the rats, male rats (F344 SPF rats) at 5 weeks of age obtained from Charles River Laboratories Japan, Inc. were used. The animals were divided into groups, each containing four individuals. The volume of the solvent administered to the vehicle control group was set to the same volume as that of the test solution administered to the carcinogen administration group or the non-carcinogen administration group. The administration of the test solution or the solvent was performed once daily for 28 days. Apiece was excised from the liver of each of the rats after a lapse of 28 days from the initiation of the administration, and the total RNA was extracted and purified.
The expression level of mRNA was compared between each of the chemical substance administration groups and the corresponding vehicle control group, and genes that satisfy the requirements described in (A) to (D) were selected, respectively.
The case where the expression level of mRNA in the carcinogen administration group or the non-carcinogen administration group is 1.5 times or more or 1/1.5 or less of the expression level of the corresponding mRNA expressed in the control group was determined to be significant. In this connection, the determination as to whether or not the change is significant was performed by taking into consideration the direction of increase or decrease in the expression level. In the case where the direction of increase or decrease is different as compared with the case where another carcinogen was administered, the change was determined to be not significant.

[1] = gene group (A), Unigene No. Rn.167075
[2] = gene group (C), Unigene No. Rn.120914

## C[C@H](CCC(=O)O)[C@H]1CC[C@H]2[C@@H]3CC[C@@H]4C[C@H](O)CC[C@]4(C)[C@H]3CC[C@]12C [TS040, Lithocholic acid]
Gene group (A), Unigene No. Rn.144554
  Behavior of gene caused by administration of chemical substance, Gene No. 4846: −
[1]
  Behavior of gene caused by administration of chemical substance, Gene No. 2026: −
  Behavior of gene caused by administration of chemical substance, Gene No. 4218: −
Gene group (A), Unigene No. Rn.5834
  Behavior of gene caused by administration of chemical substance, Gene No. 6182: −
Gene group (A), Unigene No. Rn.9836
  Behavior of gene caused by administration of chemical substance, Gene No. 5600: −
Gene group (B), Unigene No. Rn.1430
  Behavior of gene caused by administration of chemical substance, Gene No. 1494: −
Gene group (B), Unigene No. Rn.19329
  Behavior of gene caused by administration of chemical substance, Gene No. 2045: −
Gene group (B), Unigene No. Rn.21240
  Behavior of gene caused by administration of chemical substance, Gene No. 2203: −
Gene group (C), Unigene No. Rn.106184
  Behavior of gene caused by administration of chemical substance, Gene No. 533: −
Gene group (C), Unigene No. Rn.108075
  Behavior of gene caused by administration of chemical substance, Gene No. 725: −
Gene group (C), Unigene No. Rn.11766
  Behavior of gene caused by administration of chemical substance, Gene No. 1163: −
Gene group (C), Unigene No. Rn.118529
  Behavior of gene caused by administration of chemical substance, Gene No. 4973: −
Gene group (C), Unigene No. Rn.119024
  Behavior of gene caused by administration of chemical substance, Gene No. 4095: −
[2]
  Behavior of gene caused by administration of chemical substance, Gene No. 1334: −
  Behavior of gene caused by administration of chemical substance, Gene No. 6620: −
Gene group (C), Unigene No. Rn.123063
  Behavior of gene caused by administration of chemical substance, Gene No. 6303: −
Gene group (C), Unigene No. Rn.143213
  Behavior of gene caused by administration of chemical substance, Gene No. 5878: −
Gene group (C), Unigene No. Rn.144946
  Behavior of gene caused by administration of chemical substance, Gene No. 1131: −
Gene group (C), Unigene No. Rn.14744
  Behavior of gene caused by administration of chemical substance, Gene No. 1562: −
Gene group (C), Unigene No. Rn.1647
  Behavior of gene caused by administration of chemical substance, Gene No. 1741: −
Gene group (C), Unigene No. Rn.164817
  Behavior of gene caused by administration of chemical substance, Gene No. 893: −
Gene group (C), Unigene No. Rn.167685
  Behavior of gene caused by administration of chemical substance, Gene No. 6026: −
Gene group (C), Unigene No. Rn.185941
  Behavior of gene caused by administration of chemical substance, Gene No. 154: −
Gene group (C), Unigene No. Rn.18728
  Behavior of gene caused by administration of chemical substance, Gene No. 1993: −
Gene group (C), Unigene No. Rn.201760
  Behavior of gene caused by administration of chemical substance, Gene No. 813: −
Gene group (C), Unigene No. Rn.23969
  Behavior of gene caused by administration of chemical substance, Gene No. 2494: −
Gene group (C), Unigene No. Rn.24561
  Behavior of gene caused by administration of chemical substance, Gene No. 2546: −
Gene group (C), Unigene No. Rn.43232
  Behavior of gene caused by administration of chemical substance, Gene No. 3776: −
Gene group (C), Unigene No. Rn.4620
  Behavior of gene caused by administration of chemical substance, Gene No. 3929: −
Gene group (C), Unigene No. Rn.9757
  Behavior of gene caused by administration of chemical substance, Gene No. 1119: −
Gene group (C), Unigene No. Rn.9779
  Behavior of gene caused by administration of chemical substance, Gene No. 6742: +
Gene group (C), Unigene No. Rn.9862
  Behavior of gene caused by administration of chemical substance, Gene No. 5634: −
Gene group (D), Unigene No. Rn.9939
  Behavior of gene caused by administration of chemical substance, Gene No. 5726: −
